The text below walks through data of ChEMBL document CHEMBL1121635 (J Med Chem, 1980).

One may read the IC50 as the concentration that inhibits the measured activity by half. Low values mean greater potency, high ones weaker potency.

Experiment [1] concerns the target Muscarinic acetylcholine receptor.
Description: Concentration of compound for 50% displacement of [3H]QNB from Muscarinic acetylcholine receptor in rat brain
The target of experiment [2] is T1, Adrenergic receptor alpha-1 (Rattus norvegicus, UniProt P15823+P23944+P43140).
T1 sequence (P15823 whole entry): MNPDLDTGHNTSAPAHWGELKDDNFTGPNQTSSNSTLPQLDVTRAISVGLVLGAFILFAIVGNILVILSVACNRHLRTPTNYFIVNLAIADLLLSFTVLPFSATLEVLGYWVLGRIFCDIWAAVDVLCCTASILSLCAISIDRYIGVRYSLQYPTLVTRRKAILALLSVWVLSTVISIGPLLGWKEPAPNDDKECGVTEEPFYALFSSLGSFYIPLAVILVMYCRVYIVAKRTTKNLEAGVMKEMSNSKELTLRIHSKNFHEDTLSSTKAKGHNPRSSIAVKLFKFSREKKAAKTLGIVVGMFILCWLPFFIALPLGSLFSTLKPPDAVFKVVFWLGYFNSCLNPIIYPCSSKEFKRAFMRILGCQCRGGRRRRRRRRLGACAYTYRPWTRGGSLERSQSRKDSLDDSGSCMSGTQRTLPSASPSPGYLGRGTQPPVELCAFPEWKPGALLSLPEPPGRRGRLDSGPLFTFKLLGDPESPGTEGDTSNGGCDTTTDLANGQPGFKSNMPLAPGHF
T1 sequence (P23944 whole entry): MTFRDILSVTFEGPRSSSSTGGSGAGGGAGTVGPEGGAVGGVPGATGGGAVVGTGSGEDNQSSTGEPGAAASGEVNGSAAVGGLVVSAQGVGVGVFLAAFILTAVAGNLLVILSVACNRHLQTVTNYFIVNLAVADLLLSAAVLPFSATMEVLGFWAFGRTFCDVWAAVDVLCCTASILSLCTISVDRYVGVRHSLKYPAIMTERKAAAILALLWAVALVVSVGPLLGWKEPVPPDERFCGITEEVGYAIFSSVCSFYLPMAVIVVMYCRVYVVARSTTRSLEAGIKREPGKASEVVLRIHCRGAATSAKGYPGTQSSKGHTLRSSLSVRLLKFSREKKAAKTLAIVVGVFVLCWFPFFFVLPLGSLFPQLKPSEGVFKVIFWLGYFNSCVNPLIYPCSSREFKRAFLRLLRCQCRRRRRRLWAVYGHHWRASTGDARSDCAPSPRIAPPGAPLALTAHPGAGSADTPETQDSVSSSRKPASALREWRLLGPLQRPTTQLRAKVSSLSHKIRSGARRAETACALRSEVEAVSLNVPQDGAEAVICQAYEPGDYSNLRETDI
T1 sequence (P43140 whole entry): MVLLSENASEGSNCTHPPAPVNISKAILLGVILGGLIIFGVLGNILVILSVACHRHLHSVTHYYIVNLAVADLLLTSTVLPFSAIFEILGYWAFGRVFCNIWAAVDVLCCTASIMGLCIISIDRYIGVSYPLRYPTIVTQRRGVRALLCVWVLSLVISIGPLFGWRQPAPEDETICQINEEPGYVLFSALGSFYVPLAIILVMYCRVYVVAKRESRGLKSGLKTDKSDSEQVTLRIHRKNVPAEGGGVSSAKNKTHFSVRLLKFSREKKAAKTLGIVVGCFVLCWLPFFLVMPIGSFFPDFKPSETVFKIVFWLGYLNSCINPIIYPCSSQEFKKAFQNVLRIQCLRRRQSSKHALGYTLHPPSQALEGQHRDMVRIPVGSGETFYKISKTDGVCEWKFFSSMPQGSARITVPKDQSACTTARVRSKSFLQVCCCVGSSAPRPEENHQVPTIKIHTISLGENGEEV
Description: Concentration of compound for 50% displacement of [3H]WB-4101 from Alpha-1 adrenergic receptor of rat brain

The species entered for experiment [3] is Rattus norvegicus. Kind of experiment: cells. Particulars: Brain, 3 h.
Description: (§1) Concentration of compound to inhibit 50% of [3H]-5-HT neurotransmitter uptake in rat brain
For experiment [4], the species on record is Rattus norvegicus.
Description: (§2) Concentration of compound to inhibit 50% of [3H]norepinephrine neurotransmitter uptake in rat brain
The species named for experiment [5] is Rattus norvegicus. This is another data set of the same source.
Description: as §1
The species named for experiment [6] is Rattus norvegicus. Kind of experiment: cells. Particulars: Brain, 3 h. The source holds these as a separate data set.
Description: as §2
A further experiment deals with Dopamine receptor. Kind of experiment: Concentration of compound for 50% displacement of [3H]spiperone from Dopamine receptor in rat brain. In kind it is tissue-based. Background: In a radioligand displacement assay an active substance lowers the binding of a labelled ligand.

For the compound `CN1CCC2c3cccc4c3N(CC2C1)c1ccccc1CC4` (stereo in doubt), the IC50 in experiment [1] is 2240 nM; in experiment [2], 445 nM; in the experiment listed under Rattus norvegicus [3], 19.6 µM; in the experiment listed under Rattus norvegicus [4], 3540 nM.

On to `CN1CCC2c3cccc4c3N(CC2C1)c1ccccc1CC4` (trans isomer), for which the IC50 stood at 449 nM in experiment [1], 1760 nM in experiment [2], 14.2 µM in the experiment listed under Rattus norvegicus [5] and 1250 nM in the experiment filed under Rattus norvegicus [4].

For the compound `CN(C)CCCN1c2ccccc2CCc2ccccc21` [IMIPRAMINE], the IC50 in the experiment listed under Rattus norvegicus [6] is 169 nM; in experiment [1], 269 nM; in the experiment listed under Rattus norvegicus [3] it was 0.384 µM; at Dopamine receptor, 645 nM.
